Source: ChEMBL document CHEMBL5052841, “Usp19 inhibitors for use in therapy” (2020)
Values belong to the compound of their own block, whether it stands above or below them. Activity calls are given as the source filed them. The calls are words filed in the database; no cut-off is given here.

What was measured:
Mus musculus [1] = assay: Protection against sciatic nerve denervation-induced muscular atrophy in male C57BL/6 mouse assessed as decrease in muscle wasting in gastrocnemius muscle at 75 mg/kg, ip administered twice daily; assay type: functional, organism-based
Mus musculus [2] = assay: Anti-diabetic activity in high-fat diet-induced obesity model of male C57BL/6J mouse assessed as decrease in plasma insulin at 25 mg/kg, ip administered twice daily; assay type: functional, organism-based
[3] = Toxicity in high-fat diet-induced obesity model of male C57BL/6J mouse assessed as decrease in total protein content at 25 mg/kg, ip administered twice daily; assay type: organism-based; design: scale not given: the % may be the effect or the level left; details: in vivo
[4] = biological target: T1, Ubiquitin carboxyl-terminal hydrolase 19 (Homo sapiens, UniProt O94966); assay: Inhibition of C-terminal His6-tagged recombinant human USP19 using iso-peptide ubiquitin-Lys-TAMRA as substrate incubated for 30 mins and measured after 90 mins by fluorescent polarization assay
T1 sequence (O94966 whole entry): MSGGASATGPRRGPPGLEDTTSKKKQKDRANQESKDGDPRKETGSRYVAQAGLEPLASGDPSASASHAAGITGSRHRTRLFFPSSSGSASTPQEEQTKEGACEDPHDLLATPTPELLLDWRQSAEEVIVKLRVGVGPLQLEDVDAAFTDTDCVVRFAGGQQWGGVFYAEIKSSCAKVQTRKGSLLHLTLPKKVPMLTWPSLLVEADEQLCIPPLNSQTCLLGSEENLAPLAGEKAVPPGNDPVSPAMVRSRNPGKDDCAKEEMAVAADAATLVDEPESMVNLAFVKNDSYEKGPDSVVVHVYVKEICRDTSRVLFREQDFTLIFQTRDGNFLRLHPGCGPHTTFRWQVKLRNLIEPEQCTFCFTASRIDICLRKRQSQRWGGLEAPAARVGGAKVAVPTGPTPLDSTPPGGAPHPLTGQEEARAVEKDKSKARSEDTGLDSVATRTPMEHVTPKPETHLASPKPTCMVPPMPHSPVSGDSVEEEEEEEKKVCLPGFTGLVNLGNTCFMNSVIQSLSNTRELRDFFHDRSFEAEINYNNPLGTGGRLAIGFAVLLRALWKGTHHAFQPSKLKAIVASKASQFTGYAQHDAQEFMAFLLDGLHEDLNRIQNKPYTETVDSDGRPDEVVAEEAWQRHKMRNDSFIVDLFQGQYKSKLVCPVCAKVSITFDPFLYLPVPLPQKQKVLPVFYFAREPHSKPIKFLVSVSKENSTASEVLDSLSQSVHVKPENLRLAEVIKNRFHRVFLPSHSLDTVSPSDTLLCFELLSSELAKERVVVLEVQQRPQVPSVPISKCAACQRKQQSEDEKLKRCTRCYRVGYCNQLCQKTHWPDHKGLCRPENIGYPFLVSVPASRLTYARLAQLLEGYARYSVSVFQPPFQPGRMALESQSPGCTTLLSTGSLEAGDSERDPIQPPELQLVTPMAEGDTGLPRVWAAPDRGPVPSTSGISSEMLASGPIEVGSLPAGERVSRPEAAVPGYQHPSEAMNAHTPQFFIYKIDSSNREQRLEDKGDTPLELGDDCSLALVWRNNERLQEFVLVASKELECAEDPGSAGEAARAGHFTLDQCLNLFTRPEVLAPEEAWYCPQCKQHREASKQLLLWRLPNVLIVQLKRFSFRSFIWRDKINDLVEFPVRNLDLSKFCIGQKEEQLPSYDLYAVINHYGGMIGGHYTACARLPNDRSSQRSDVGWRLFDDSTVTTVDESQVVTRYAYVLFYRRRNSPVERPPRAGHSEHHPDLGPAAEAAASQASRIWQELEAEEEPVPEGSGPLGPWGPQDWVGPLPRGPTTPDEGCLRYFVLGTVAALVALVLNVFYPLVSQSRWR

[5] = Toxicity in high-fat diet-induced obesity model of male C57BL/6J mouse assessed as increase in body water content at 25 mg/kg, ip administered twice daily; assay type: organism-based; details: in vivo
[6] = Toxicity in high-fat diet-induced obesity model of male C57BL/6J mouse assessed as decrease in total body weight at 25 mg/kg, ip administered twice daily; assay type: organism-based; design: scale not given: the % may be the effect or the level left; details: in vivo
[7] = biological target: T1, Ubiquitin carboxyl-terminal hydrolase 19; assay: Inhibition of USP19 (unknown origin) in neuroblastoma cell measured by cell target engagement assay; assay type: cell-based
[8] = biological target: T1, Ubiquitin carboxyl-terminal hydrolase 19; assay: Inhibition of USP19 (unknown origin) in breast cancer cell measured by cell target engagement assay; design: species or system Breast cancer cell line
Mus musculus [9] = assay: Protection against sciatic nerve denervation-induced muscular atrophy in male C57BL/6 mouse assessed as lower loss of tibialis anterior muscle at 75 mg/kg, ip administered twice daily; assay type: functional, organism-based
Mus musculus [10] = assay: Antiobesity activity in high-fat diet-induced obesity model of male C57BL/6J mouse assessed as reduction in epididymal fat mass at 5 to 25 mg/kg, ip administered twice daily; assay type: functional, organism-based; details: dose 5-25 mg/kg
[11] = Toxicity in high-fat diet-induced obesity model of male C57BL/6J mouse assessed as reduction in body fat at 25 mg/kg, ip administered twice daily; assay type: organism-based; design: scale not given: the % may be the effect or the level left; details: in vivo
Mus musculus [12] = assay: Antiobesity activity in high-fat diet-induced obesity model of male C57BL/6J mouse assessed as increase in liver mass at 5 to 25 mg/kg, ip administered twice daily; assay type: functional, organism-based; details: dose 5-25 mg/kg
[13] = Toxicity in high-fat diet-induced obesity model of male C57BL/6J mouse assessed as effect on body water content at 5 mg/kg, ip administered twice daily; assay type: organism-based; details: in vivo
Mus musculus [14] = assay: Anti-diabetic activity in high-fat diet-induced obesity model of male C57BL/6J mouse assessed as decrease in plasma glucose at 25 mg/kg, ip administered twice daily; assay type: functional, organism-based
[15] = Toxicity in high-fat diet-induced obesity model of male C57BL/6J mouse assessed as effect on total protein content at 5 mg/kg, ip administered twice daily; assay type: organism-based; details: in vivo
Mus musculus [16] = assay: Antiobesity activity in high-fat diet-induced obesity model of male C57BL/6J mouse assessed as reduction in lean mass at 5 to 25 mg/kg, ip administered twice daily; assay type: functional; design: scale not given: the % may be the effect or the level left; details: dose 5-25 mg/kg
Mus musculus [17] = assay: Antiobesity activity in high-fat diet-induced obesity model of male C57BL/6J mouse assessed as decrease in body weight gain at 5 to 25 mg/kg, ip administered twice daily; assay type: functional, organism-based; details: dose 5-25 mg/kg
[18] = Toxicity in high-fat diet-induced obesity model of male C57BL/6J mouse assessed as decrease in total ash content at 25 mg/kg, ip administered twice daily; assay type: organism-based; design: scale not given: the % may be the effect or the level left; details: in vivo
[19] = Inhibition of USP19 in mouse skeletal muscle cell measured by cell target engagement assay; assay type: cell-based
Mus musculus [20] = assay: Antiobesity activity in high-fat diet-induced obesity model of male C57BL/6J mouse assessed as reduction in fat mass at 5 to 25 mg/kg, ip administered twice daily; assay type: functional; design: scale not given: the % may be the effect or the level left; details: dose 5-25 mg/kg
[21] = Toxicity in high-fat diet-induced obesity model of male C57BL/6J mouse assessed as reduction in body fat at 0.1 mg/kg, sc administered twice daily; assay type: organism-based; design: scale not given: the % may be the effect or the level left; details: in vivo
[22] = Toxicity in high-fat diet-induced obesity model of male C57BL/6J mouse assessed as decrease in total protein content at 0.1 mg/kg, sc administered twice daily; assay type: organism-based; design: scale not given: the % may be the effect or the level left; details: in vivo
[23] = Toxicity in high-fat diet-induced obesity model of male C57BL/6J mouse assessed as decrease in total body weight at 0.1 mg/kg, sc administered twice daily; assay type: organism-based; design: scale not given: the % may be the effect or the level left; details: in vivo
[24] = Toxicity in high-fat diet-induced obesity model of male C57BL/6J mouse assessed as decrease in total ash content at 0.1 mg/kg, sc administered twice daily; assay type: organism-based; design: scale not given: the % may be the effect or the level left; details: in vivo
[25] = Toxicity in high-fat diet-induced obesity model of male C57BL/6J mouse assessed as decrease in body water content at 0.1 mg/kg, sc administered twice daily; assay type: organism-based; design: scale not given: the % may be the effect or the level left; details: in vivo

IC50 [4]: < 500 nM
EC50 [7]: 32.8 nM
EC50 [8]: 9.9 nM
EC50 [19]: 13.5 nM
Compound: C[C@H](CC1CCCCC1)C(=O)N1CC[C@@](O)(Cn2cc(C(=O)N3CCNCC3)c(-c3ccccc3)cc2=O)C2(CCCC2)C1
Activity (Mus musculus [1]): Active
Activity (Mus musculus [2]): Active
Activity [3]: -7.2%
Activity [5]: 11.4%
Activity [6]: 13%
Activity (Mus musculus [9]): Active
Activity (Mus musculus [10]): Active
Activity [11]: 24.9%
Activity (Mus musculus [12]): Active
Activity [13]: Non-Toxic
Activity (Mus musculus [14]): Active
Activity [15]: Non-Toxic
Activity (Mus musculus [16]): -3%
Activity (Mus musculus [17]): Active
Activity [18]: -9.6%
Activity (Mus musculus [20]): 24%

Compound: CCCCCCCCCCCCCCCC(=O)N[C@@H](CCC(=O)NCCCC[C@H](NC(=O)[C@H](C)NC(=O)[C@H](C)NC(=O)[C@H](CCC(N)=O)NC(=O)CNC(=O)[C@H](CCC(=O)O)NC(=O)[C@H](CC(C)C)NC(=O)[C@H](Cc1ccc(O)cc1)NC(=O)[C@H](CO)NC(=O)[C@H](CO)NC(=O)[C@@H](NC(=O)[C@H](CC(=O)O)NC(=O)[C@H](CO)NC(=O)[C@@H](NC(=O)[C@H](Cc1ccccc1)NC(=O)[C@@H](NC(=O)CNC(=O)[C@H](CCC(=O)O)NC(=O)[C@H](C)NC(=O)[C@@H](N)Cc1cnc[nH]1)[C@@H](C)O)[C@@H](C)O)C(C)C)C(=O)N[C@@H](CCC(=O)O)C(=O)N[C@@H](Cc1ccccc1)C(=O)N[C@H](C(=O)N[C@@H](C)C(=O)N[C@@H](Cc1c[nH]c2ccccc12)C(=O)N[C@@H](CC(C)C)C(=O)N[C@H](C(=O)N[C@@H](CCCNC(=N)N)C(=O)NCC(=O)N[C@@H](CCCNC(=N)N)C(=O)NCC(=O)O)C(C)C)[C@@H](C)CC)C(=O)O [LIRAGLUTIDE]
Activity [21]: 17.4%
Activity [22]: -7.9%
Activity [23]: 13%
Activity [24]: -11.6%
Activity [25]: -8.6%

IC50 [4]: < 500 nM
Compound: CN(C)C(=O)c1cn(C[C@]2(O)CCN(C(=O)[C@H](CO)CC3CCCCC3)CC2(C)C)c(=O)cc1-c1ccccc1

IC50 [4]: < 500 nM
Compound: C[C@H](CC1CCCCC1)C(=O)N1CC[C@@](O)(Cn2cc(C(=O)N(C)C)c(-c3ccccc3)cc2=O)C2(CCCC2)C1

IC50 [4]: < 500 nM
Compound: CN(C)C(=O)c1cn(C[C@]2(O)CCN(C(=O)[C@H](CO)CC3CCC3)CC2(C)C)c(=O)cc1-c1ccccc1

IC50 [4]: < 500 nM
Compound: O=C(C1CCNC1c1ccccc1)N1CC[C@@](O)(Cn2cnc(-c3ccccc3)cc2=O)C2(CCCC2)C1 (stereo partly specified)

IC50 [4]: ≥ 5000 nM
Compound: CC(Cc1ccccc1)C(=O)N1CCC(O)(Cn2cnc(-c3ccccc3F)cc2=O)CC1 (racemic)

IC50 [4]: < 500 nM
Compound: C[C@H](CC1CCCCC1)C(=O)N1CC[C@@](O)(Cn2cc(C(=O)O)c(-c3ccccc3)cc2=O)C2(CCCC2)C1

IC50 [4]: < 500 nM
Compound: C[C@H](CC1CCCCC1)C(=O)N1CCC(O)(Cn2cc(C(=O)N(C)C)c(N(C)C)cc2=O)C2(CCCC2)C1 (stereo partly specified)

IC50 [4]: < 500 nM
Compound: C[C@H](CC1CCCCC1)C(=O)N1CC[C@@](O)(Cn2cc(C(=O)N(C)C)c(-c3ccccc3F)cc2=O)C2(CCCC2)C1

IC50 [4]: < 500 nM
Compound: C[C@H](CC1CCCCC1)C(=O)N1CC[C@@](O)(Cn2cc(C(=O)N3CCOCC3)c(-c3ccccc3)cc2=O)C2(CCCC2)C1

IC50 [4]: < 500 nM
Compound: C[C@H](CC1CCCCC1)C(=O)N1CCC(O)(Cn2cc(C(=O)N3CCNCC3)c(-c3ccccc3)cc2=O)C2(CCCCC2)C1 (stereo partly specified)

IC50 [4]: ≤ 5000 nM
Compound: O=C(c1cn(C[C@]2(O)CCN(C(=O)C(CC(F)(F)F)CC(F)(F)F)CC23CCCC3)c(=O)cc1-c1ccccc1)N1CCNCC1
